# From US7060733B2, “Methods for treating pancreatitis with curcumin compounds and inhibitors of reactive oxygen species” (The Regents of the University of California, priority 2002, dated 2006)
# Entries after “also recorded” stand apart in the source; their conditions may differ.
# Columns and labels:
# caspase-3 = test: Caspase-3-like (DEVDase) activity in pancreatic tissue lysates; assay type: in vivo, rat; conditions: for Caspase-3-like (DEVDase) activity versus pancreatitis without curcumin: p<0.05; for augmentation of the increase in DEVDase activity: rat pancreas
# Experimental: […] activity was measured by methods known in the art. See Gukovskaya A S, et al. (2002). Briefly, samples of pancreatic tissue were rinsed with ice-cold PBS and homogenized in a lysis buffer comprising 150 mM NaCl, 50 mM Tris-HCL (pH 7.5), 0.5% Igepal CA-630 (Sigma, St. Louis, Mo.), and 0.5 mM EDTA. Lysates were centrifuged for 10 minutes at 16,000× g and the supernatants were collected. Caspase activity was determined at 37° C. in a buffer comprising 25 mM HEPES (pH 7.5), 10% sucrose, 0.1% CHAPS, 10 mM DTT and […] Ac-DEVD-AMC, a specific fluorogenic substrate for measurement of caspase-3-like activity (AnaSpec, San Jose, Calif.). Cleavage of the substrate releases AMC that emits a fluorescent signal with excitation at 380 nm and emission at 440 nm. Fluorescence was calibrated using a standard curve for AMC. The data were expressed as mol AMC/min/mg protein.
# p38 MAP kinase = p38 MAP kinase (Homo sapiens, UniProt Q16539); conditions: various cell types and tissues; cited from earlier work
# pancreatic acinar cells = test: LDH release from pancreatic acinar cells; assay type: cell-based, rat; conditions: 100 μM curcumin, control acinar cells or cells stimulated with 100 nM CCK-8
# NF-κB = test: CCK-induced NF-κB activation in isolated pancreatic acinar cells (EMSA); assay type: cell-based, rat
# Experimental: To confirm that the effects of curcumin occur in the pancreatic acinar cell, the effects of curcumin on the activation of NF-κB and AP-1 in vitro in CCK-stimulated pancreatic acini. Pancreatic acini were prepared from rat pancreas using the collagenase digestion method as described by Pandol S J, et al. (1982) J. Biol. Chem. 257:12024–12029, which is herein incorporated by reference, and then incubated at 37° C. in 199 medium (GIBCO, Rockville, Md.) known in the art. See Blinman T A, et al. (2000); Gukovskaya A S, et al. (1997); Gulkovsky I, et al. (1998); and Zaninovic V, et al. (2000).
# EMSAs for NF-κB and AP-1 were performed on nuclear proteins extracted from each sample as provided above.
# Nuclear protein extracts were prepared by methods known in the art. See Blinman T A, et al. (2000); Gukovskaya A S, et al. (1997); Gukovsky I, et al. (1998); Pandol S J, et al. (1999); Vaquero E, et al. (2001); and Zaninovic V, et al. (2000). Briefly, samples of pancreatic tissue or isolated acini were rinsed in ice-cold PBS and homogenized in hypotonic Buffer A (20 mM β-glycerophosphate, 10 mM HEPES, pH 7.6, 1.5 mM MgCl2, 10 mM KCl, 10 mM Na2MoO4, 0.1 mM Na3VO4, 1 mM dithiothreitol (DTT), 1 mM phenylmethylsulfonyl fluoride (PMSF), 5 μg/ml each of protease inhibitors pepstatin, leupeptin, chymostatin, antipain and aprotinin). […]
# trypsin = test: Trypsin activation assay in pancreatic tissue homogenates; assay type: in vivo, rat; conditions: for inhibition of intrapancreatic trypsin activation / active trypsin versus pancreatitis without curcumin: rat
# Experimental: Pancreatic tissue homogenates were prepared by methods known in the art. See Gukovskaya A S, et al. (2002); Gukovsky I, et al. (1998); Sandoval D, et al. (1996) Gastroenterology 111:1081–1091; and Vaquero E, et al. (2001), which are herein incorporated by reference. Active trypsin was measured in the pancreatic tissue homogenates by using a specific substrate, Boc-GLn-Ala-Arg-A MC (Bachem, Torrance, Calif.). See Kawabata S. et al. (1988) Eur. J. Biochem. 172:17–25, which is herein incorporated by reference. Cleavage of the substrate by trypsin releases 7-amino-4-methylcoumarin (AMC), which emits fluorescence at 440 nm with excitation at 380 nm. Trypsin activity in each sample was determined using a standard curve for purified trypsin.
# Specifically, about ⅓ of rat pancreas was homogenized in 2 ml ice-cold buffer A (5 mM MES, pH 6.5; 1 mM MgSO4, 250 mM sucrose). Then 2 ml of buffer B (50 mM Tris, pH 8.0; 150 mM NaCl, 1 mM CaCl2, 0.1 mg/ml BSA) was mixed with 25 μl of the homogenate and kept on ice. Then 2 μl of 20 mM substrate solution (20 mM Boc-Gln-Ala-Arg-AMC.HCl in DMSO) was added to start the reaction. The sample was mixed well and incubated at 37° C. The reaction product was measured with a spectrofluorimeter for 20 minutes at ex=380 nm; em=440 nm.
# Chain of p38 MAP kinase (Q16539 whole entry): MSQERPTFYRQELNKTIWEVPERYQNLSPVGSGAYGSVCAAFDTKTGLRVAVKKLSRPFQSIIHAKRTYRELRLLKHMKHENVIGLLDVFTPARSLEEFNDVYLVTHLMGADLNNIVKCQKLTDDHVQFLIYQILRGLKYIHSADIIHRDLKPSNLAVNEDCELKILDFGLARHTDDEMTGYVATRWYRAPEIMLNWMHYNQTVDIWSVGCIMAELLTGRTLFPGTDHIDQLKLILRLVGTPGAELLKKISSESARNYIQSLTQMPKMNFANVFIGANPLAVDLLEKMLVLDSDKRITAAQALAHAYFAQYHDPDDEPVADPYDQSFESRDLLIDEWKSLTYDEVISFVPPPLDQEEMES
structure (smiles),measurement,setting,value
COc1cc(/C=C/C(=O)CC(=O)/C=C/c2ccc(O)c(OC)c2)ccc1O [curcumin],Caspase-3-like (DEVDase) activity versus pancreatitis without curcumin,caspase-3; EtOH+CCK pancreatitis,significantly higher
same,augmentation of the increase in DEVDase activity,caspase-3; EtOH+CCK pancreatitis,greater than 2 fold
same,Caspase-3-like (DEVDase) activity versus pancreatitis without curcumin,caspase-3; cerulein pancreatitis,significantly higher
same,augmentation of the increase in DEVDase activity,caspase-3; cerulein pancreatitis,greater than 2 fold
same,effect on p38 MAP kinase,p38 MAP kinase,no effect
same,LDH release,pancreatic acinar cells,did not cause additional LDH release
same,CCK-induced activation of NF-κB in isolated acinar cells,"NF-κB; 1 h with compound, then 0.1 μM CCK 30 min",inhibits; also recorded: abolished; also recorded: blocked; also recorded: attenuates; also recorded: not highly potent
same,basal NF-κB binding activity in acinar cells,"NF-κB; control cells, incubated without CCK",inhibited
same,inhibition of intrapancreatic trypsin activation,trypsin; EtOH+CCK model,greater than 50%
same,inhibition of intrapancreatic trypsin activation,trypsin; cerulein model,greater than 70%
same,active trypsin versus pancreatitis without curcumin,trypsin; cerulein pancreatitis,significantly lower; also recorded: significantly inhibited
same,basal level of active pancreatic trypsin,"trypsin; ethanol-fed rats, EtOH+CCK model, basal",unaffected
same,active trypsin versus pancreatitis without curcumin,trypsin; ethanol/CCK pancreatitis,significantly lower; also recorded: significantly inhibited
